Tested on: fontane variety of potatoes
Description: There now follows a description of an experimental trial by the inventors
The goal of the trial was to recondition French fry tubers in a 2-3 week period to improve fry colour and maintain brittle sprouts.
3 trial cells were operated, each 85 cubic meters in size and holding fontane variety of potatoes. The stores holding each trial cell stores were warmed to 12.5° C.
A sample was taken from each cell. Each sample was made up of 25 tubers from the front and the back of the store. The tubers selected were showing signs of sprouting in some degree and have had variable and in some cases poor fry color results.
The first sample was sent for a benchmark Soleye fry colour measurement. Soleye is an optical colour reader used to determine fry colour.
Gradually reducing the ethylene level by 0.5 ppm per day from […] @ 12 C
First 7 days 4 ppm and from day 8 reduced to continuous 2 ppm @ 12 C

**Q.** What does the source list for C=C [ethylene]?
**A.** Soleye fry colour score (the lower the score, the better the fry colour) (after reconditioning, samples from store 64: continuous 2 ppm ethylene @ 12 C, FIG. 3): 0; sprout condition following reconditioning (cells 56, 60 and 64, ethylene programmes at 12 C, 2-3 week period, all tubers): maintained brittle sprouts
